From patent US20180116993A1, “MODULATORS OF FARNESOID X RECEPTOR AND METHODS FOR THE USE THEREOF” (XIAMEN UNIVERSITY, priority 2015, published 2018)
Read-outs that look alike come from different tables or passages of the source. Marks after values point to notes of the source that are not given here.

Assays:
[1] = molecular target: T1, FXR ligand binding domain (LBD) (Homo sapiens, UniProt Q96RI1); assay: AlphaScreen assay: FXR LBD recruitment of coregulator peptide motifs (SRC2-3, SRC1-2); assay type: biochemical
T1 construct: made in house
T1 sequence (Q96RI1 262-486 limits assumed): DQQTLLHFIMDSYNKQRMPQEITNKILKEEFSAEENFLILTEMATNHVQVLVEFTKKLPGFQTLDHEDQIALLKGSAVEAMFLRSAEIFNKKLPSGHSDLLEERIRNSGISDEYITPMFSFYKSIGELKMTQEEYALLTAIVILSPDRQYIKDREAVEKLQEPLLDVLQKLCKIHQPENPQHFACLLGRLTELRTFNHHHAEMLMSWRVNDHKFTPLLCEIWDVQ
Protocol: In search of novel ligands for FXR, we used FXR ligand binding domain (LBD) as a bait to screen chemical libraries based on AlphaScreen biochemical assay, which determines the efficacy of small molecules in influencing binding affinity of FXR with coregulator peptides (see e.g., Jin et al., (2013) Nature communications 4, 1937).
The binding of the cofactor peptide motifs to FXR ligand binding domain (LBD) in response to ligands was determined by AlphaScreen assays using a hexahistidine detection kit from Perkins-Elmer. The FXR LBD protein was purified as described previously (see e.g., Jin et al., (2013) Nature communications 4, 1937). The experiments were conducted with approximately 20-40 nM receptor LBD and 20 nM biotinylated cofactor peptides in the presence of 5 μg/ml donor and acceptor beads in a buffer containing 50 mM MOPS, 50 mM NaF, 0.05 mM CHAPS, and 0.1 mg/ml bovine serum albumin, all adjusted to a pH of 7.4.

full-length FXR = molecular target: T2, full-length FXR (Homo sapiens, UniProt Q96RI1); assay: Cell-based FXR transactivation, EcRE luciferase reporter in COS-7 cells; conditions: for fold induction at 5 µM / Cell-based FXR transactivation Fold changes by 5 μM compound: 5 μM compound; for fold induction at 5 µM / EC50: EcRE luciferase reporter; for Cell-based FXR transactivation Fold changes by 5 μM compound: positive: induction, minus: repression
T2 construct: The cells were co-transfected with plasmids encoding full-length FXR and the cognate luciferase reporter EcRE-Luc; expressed in transfected cells; host or cells: COS-7
T2 sequence (Q96RI1 1-486): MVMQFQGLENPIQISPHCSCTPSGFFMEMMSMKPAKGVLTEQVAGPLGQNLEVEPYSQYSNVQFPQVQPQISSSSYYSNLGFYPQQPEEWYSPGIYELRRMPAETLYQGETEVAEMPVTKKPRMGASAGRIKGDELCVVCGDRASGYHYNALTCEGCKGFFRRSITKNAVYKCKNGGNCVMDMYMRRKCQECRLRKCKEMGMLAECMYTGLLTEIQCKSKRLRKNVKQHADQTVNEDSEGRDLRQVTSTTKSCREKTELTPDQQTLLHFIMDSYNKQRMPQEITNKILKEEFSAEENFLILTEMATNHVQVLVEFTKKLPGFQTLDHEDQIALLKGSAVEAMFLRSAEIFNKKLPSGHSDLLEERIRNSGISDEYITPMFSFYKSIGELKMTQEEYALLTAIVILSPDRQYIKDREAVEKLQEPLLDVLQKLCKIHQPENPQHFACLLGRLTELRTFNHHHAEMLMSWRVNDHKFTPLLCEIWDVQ
Protocol: COS-7 cells were cotransfected with plasmids encoding full length FXR.
For transient transfection assay, COS-7 cells were maintained in DMEM containing 10% fetal bovine serum and were transiently transfected using Lipofectamine 2000 (Invitrogen). Before 24 h of transfection, 24-well plates were plated. The cells were co-transfected with plasmids encoding full-length FXR and the cognate luciferase reporter EcRE-Luc. Ligands were added 5 hours after transfection. Cells were harvested 24 hours later for the luciferase assays according to the manufacturer's instructions (Dual-Luciferase® Reporter Assay System, Promega). Luciferase activities were normalized to renilla activity co-transfected as an internal control.

[2] = system: human hepatoma HepG2 cells; assay: MTT cell viability assay, HepG2; assay type: cell-based; conditions: 48 h, read-out: Cell viability as a percentage of the cells treated with DMSO, HepG2
Source text: (§1) The MTT assay is a colorimetric assay for assessing cell metabolic activity. It is widely used in high-throughput screening of antitumor drugs due to its high sensitivity and economical features. In this example, MTT was used to detect the inhibitory effects of compounds on various cancer cell lines. Cancer cells including human colorectal adenocarcinoma HCT15 cells, RA-resistant human colon cancer HCT116 cells, human cervical carcinoma Hela cells, human hepatoma HepG2 cells and human breast cancer MCF7 cells were cultured in DMEM medium containing 10% fetal bovine serum. 20 uM or 40 uM of compounds were administered to treat cells, cell viability is detected by MTT assay and expressed as a percentage of the cells treated with DMSO (Table 4).

[3] = system: RA-resistant human colon cancer HCT116 cells; assay: MTT cell viability assay, HCT116; assay type: cell-based; conditions: 48 h, read-out: Cell viability as a percentage of the cells treated with DMSO, HCT116; for viability at 20 µM: HCT-116, 20 uM; for viability at 40 µM: HCT-116, 40 uM
Source text: as §1

[4] = system: human colorectal adenocarcinoma HCT15 cells; assay: MTT cell viability assay, HCT15; assay type: cell-based; conditions: 48 h, read-out: Cell viability as a percentage of the cells treated with DMSO, HCT15; for viability at 20 µM: HCT-15, 20 uM; for viability at 40 µM: HCT-15, 40 uM
Source text: as §1

[5] = system: human breast cancer MCF7 cells; assay: MTT cell viability assay, MCF-7; assay type: cell-based; conditions: 48 h, read-out: Cell viability as a percentage of the cells treated with DMSO, MCF-7
Source text: as §1

[6] = system: human cervical carcinoma Hela cells; assay: MTT cell viability assay, Hela; assay type: cell-based; conditions: 48 h, read-out: Cell viability as a percentage of the cells treated with DMSO, Hela
Source text: as §1

db/db mice = assay: Hepatic triglyceride, liver histology, serum ALT and ALP in high-fat diet fed db/db mice; assay type: in vivo, mouse; conditions: for Serum ALP (U/L): vehicle 129 ± 15
Protocol: Liver tissues fixed in 4% paraformaldehyde in example 5 were performed for H&E staining by standard procedures. Liver tissues fixed in 4% paraformaldehyde were embedded in optimum cutting temperature compound (OCT), and cryosectioned. Frozen liver sections were stained with 0.3% oil red O according to standard procedures.
The triglyceride levels in liver tissues from mice treated with compounds were analyzed using Tissue triglyceride assay kit (Applygen, Beijing, China).
Alkaline Phosphatase (ALP) is a marker of cholestasis. Cholestasis can be suspected when there is an elevation of ALP enzymes. In fact, greater than 90% of patients with bile stasis will have an elevated alkaline phosphatase. […] The aminotransferase is used to evaluate the presence of hepatitis and may be elevated in cholestasis or with common bile duct obstruction. In this example, 8-10 week age db/db mice were fed with high-fat diet and treated with 10 mg/kg of compounds once daily for 10 days as in Example 5. The activities of serum ALP and ALT were analyzed using ALP kit and ALT kit, respectively (Nanjing Jiancheng Engineering Institute, China).

[7] = SRC1-2 peptide, Table 1, read-out: EC50 (μM) of FXR binding by AlphaScreen assay recruit SRC1-2
[8] = SRC2-3 peptide, Table 1, read-out: EC50 (μM) of FXR binding by AlphaScreen assay recruit SRC2-3
[9] = SRC1-2 peptide, Table 2, read-out: EC50 (μM) of FXR binding by AlphaScreen assay recruit SRC1-2
[10] = SRC2-3 peptide, Table 2, read-out: EC50 (μM) of FXR binding by AlphaScreen assay recruit SRC2-3
[11] = 10 mg/kg once daily for 10 days
[12] = 10 mg/kg once daily for 10 days, vehicle 377 ± 48, Table 17

SMILES | EC50 [1, 9] | EC50 [1, 10] | Cell-based FXR transactivation Fold changes by 5 μM compound (full-length FXR; Table 2) | EC50 (full-length FXR; Table 2) | viability at 20 µM [2] | viability at 40 µM [2] | viability at 20 µM [3] | viability at 40 µM [3] | viability at 20 µM [4] | viability at 40 µM [4] | viability at 20 µM [5] | viability at 40 µM [5] | viability at 20 µM [6] | viability at 40 µM [6] | further results
COc1ccc(OC(=O)C23CC4CC(CC(Cl)(C4)C2)C3)cc1 [Tricyclo-[3.3.1.1^3,7]decane-1-carboxylic acid, 3-chloro-, 4-methoxyphenyl ester] | – | – | – | – | – | – | – | – | – | – | – | – | – | – | EC50 [1, 7]: < 1 µM; EC50 [1, 8]: < 1 µM; fold induction at 5 µM (full-length FXR; Table 1): > 10; EC50 (full-length FXR; Table 1): < 1000 nM
O=C(Oc1ccc(O)cc1)C12CC3CC(CC(C3)C1)C2 [Tricyclo-[3.3.1.1^3,7]decane-1-carboxylic acid, 4-hydroxy-phenyl ester] | – | – | – | – | – | – | – | – | – | – | – | – | – | – | EC50 [1, 7]: < 1 µM; EC50 [1, 8]: < 1 µM; fold induction at 5 µM (full-length FXR; Table 1): > 10; EC50 (full-length FXR; Table 1): < 1000 nM
Nc1cccc(C(=O)OCC23CC4CC(CC(C4)C2)C3)c1 [Tricyclo-[3.3.1.1^3,7]decane-1-methanol, 1-(3-aminobenzoate)] | – | – | – | – | – | – | – | – | – | – | – | – | – | – | EC50 [1, 7]: < 1 µM; EC50 [1, 8]: < 1 µM; fold induction at 5 µM (full-length FXR; Table 1): > 10; EC50 (full-length FXR; Table 1): < 1000 nM
Cc1cc(C(=O)OC2CC3CCC2(C)C3(C)C)ccc1F (stereo not shown) [XD-1, 1,7,7-trimethyl-bicyclo[2.2.1]-heptan-2-yl 4-fluoro-3-methylbenzoate] | 1 to 10 µM | 1 to 10 µM | 5 | 1000 to 10000 nM | 100 ± 2% | 62 ± 7% | 96 ± 2% | 62 ± 3% | 93 ± 2% | 42 ± 3% | 100 ± 2% | 65% | 100 ± 5% | 70 ± 3% | –
COc1cc(C(=O)OC2CC3CCC2(C)C3(C)C)ccc1F (stereo not shown) [XD-3, 1,7,7-trimethyl-bicyclo[2.2.1]-heptan-2-yl 4-fluoro-3-methoxybenzoate] | 1 to 10 µM | 1 to 10 µM | 5 | 1000 to 10000 nM | 100 ± 3% | 70 ± 3% | 80 ± 4% | 41 ± 4% | 73 ± 5% | 40 ± 1% | 100 ± 4% | 40% | 100 ± 1% | 66 ± 3% | Hepatic triglyceride (mM/g) (db/db mice; 10 mg/kg for 10 days, vehicle 148 ± 14): 80 ± 19 ^a mM/g; Serum ALT (U/L) (db/db mice; 10 mg/kg for 10 days, vehicle 377 ± 48, Table 15): 185 ± 29 ^a U/L
CC1(C)C2CCC1(C)C(OC(=O)c1ccc([N+](=O)[O-])cc1)C2 (stereo not shown) [XD-14, 1,7,7-trimethyl-bicyclo[2.2.1]-heptan-2-yl 4-nitrobenzoate] | – | – | 3 | 1000 to 10000 nM | 83% | 77 ± 1% | 60 ± 3% | 42 ± 3% | 64 ± 4% | 58 ± 4% | 91 ± 7% | 84 ± 2% | 90 ± 1% | 80 ± 5% | Serum ALP (U/L) (db/db mice; [11]): 86 ± 20^a U/L; Serum ALT (U/L) (db/db mice; [12]): 62 ± 11^c U/L

More lines, main results first:

EC50 [1, 9] | EC50 [1, 10] | Cell-based FXR transactivation Fold changes by 5 μM compound (full-length FXR; Table 2) | EC50 (full-length FXR; Table 2) | SMILES | viability at 20 µM [2] | viability at 40 µM [2] | viability at 20 µM [3] | viability at 40 µM [3] | viability at 20 µM [4] | viability at 40 µM [4] | viability at 20 µM [5] | viability at 40 µM [5] | viability at 20 µM [6] | viability at 40 µM [6] | further results
– | – | 1.5 | – | O=C(OC1CCCCCCC1)C1CCC(O)CC1 (stereo not shown) [XD-19, cyclooctyl 4-hydroxy-cyclohexane-carboxylate] | – | – | – | – | – | – | – | – | – | – | –
– | – | 1.5 | – | CC1(C)C2CCC1(C)C(OC(=O)C1CCC(N)CC1)C2 (stereo not shown) [XD-21, 1,7,7-trimethyl-bicyclo[2.2.1]-heptan-2-yl 4-aminocyclo-hexane-carboxylate] | – | – | – | – | – | – | – | – | – | – | –
1 to 10 µM | 1 to 10 µM | 3 | > 1000 nM | Nc1ccc(C(=O)OC2CC3CCC2C3)cc1 (stereo not shown) [XD-22, bicyclo[2.2.1]-heptan-2-yl 4-aminobenzoate] | 100 ± 3% | 100 ± 8% | 89 ± 1% | 65 ± 4% | 100 ± 4% | 100 ± 4% | 100 ± 2% | 100 ± 1% | 100 ± 2% | 100 ± 4% | –
– | – | −2 | < 1000 nM | O=C(OC1CCC2CCCCC2C1)c1ccc([N+](=O)[O-])cc1 (stereo not shown) [XD-26, decahydro-naphthalen-2-yl 4-nitrobenzoate] | 100 ± 2% | 100 ± 2% | 100 ± 2% | 92 ± 2% | 86 ± 2% | 56 ± 2% | 100 ± 2% | 92 ± 2% | 87% | 70 ± 2% | –
< 1 µM | < 1 µM | 2 | 1000 to 10000 nM | Cc1cc(C(=O)OC2CCC3CCCCC3C2)ccc1F (stereo not shown) [XD-34, decahydro-naphthalen-2-yl 4-fluoro-3-methylbenzoate] | 100 ± 6% | 88 ± 6% | 98 ± 6% | 94 ± 6% | 100 ± 6% | 100 ± 6% | 100 ± 6% | 99 ± 6% | 98 ± 6% | 97 ± 6% | Serum ALP (U/L) (db/db mice; [11]): 91 ± 18^a U/L; Serum ALT (U/L) (db/db mice; [12]): 73 ± 20^b U/L
